Test results published in patent publication US20030165919A1, “Method for the analysis of exogenic and endogenic cell activiation based on measuring the aggregation of receptors” (priority 2000, published 2003).

Tests used:
Assay type in all cases: cell-based
CD16/CD14 (Uchm1) = molecular target: T1, CD16/CD14 (Uchm1) (Homo sapiens, UniProt P08571); assay: FRET co-assembly of CD16 with CD14 on monocytes; settings: LPS 4 nM, ceramide 40 nM, LTA 1 μg/ml; mean ± SD of 10 experiments; >5% = positive transfer
T1 construct: endogenous in cells; host or cells: human monocytes in whole blood
T1 sequence (P08571 20-345 limits assumed): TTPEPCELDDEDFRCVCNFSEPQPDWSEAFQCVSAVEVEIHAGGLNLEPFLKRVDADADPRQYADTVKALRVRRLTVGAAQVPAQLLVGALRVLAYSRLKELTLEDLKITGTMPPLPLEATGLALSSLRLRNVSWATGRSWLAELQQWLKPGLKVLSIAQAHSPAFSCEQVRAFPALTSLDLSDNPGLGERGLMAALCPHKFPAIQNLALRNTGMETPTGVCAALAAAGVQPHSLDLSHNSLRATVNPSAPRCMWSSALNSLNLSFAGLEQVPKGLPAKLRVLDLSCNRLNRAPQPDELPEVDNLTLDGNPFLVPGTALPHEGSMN
Protocol: (§1) Aliquots […] of whole blood were incubated with the following stimulatory compounds at 37° C. for 15 minutes: LPS of Salmonella minnesota (0.1-10 nM, Mw 10 kDa), ceramide (primarily stearic acid and nervonic acid) and sulfogalactosyl ceramide (SG-cer, […]), both of which tested LPS free in the LAL assay (Cer, 1 nM-5.5 mM), lysophosphatidyl choline (lyso-PC, 10 mM), phorbol-12-myristate-13-acetate (PMA, 1 mM), N-formyl-L-methionyl-L-leucyl-L-phenyl alamine (fMLP, 1 mM), PE, PC, PI and PS liposomes (10 mm) which had been prepared as described above. All reagents were obtained from Sigma. In addition, the cells were stimulated with HPS70 (7 nM), dHSP70 (7 nM) and SG-cer+dHSP70 (40 nM+7 nM). After incubation, the cells were washed with cold PBS containing 0.1% of NaN3. The synthetic LPS antagonist lipid IVa (“compound-406”, 1-400 ng/ml) and lipid A derived from E. coli (1-100 ng/ml) were made available by courtesy of Dr. S. Kusumoto. The cells were pre-incubated with the LPS antagonist at 37° C. for 15 minutes and then stimulated with LPS at the same temperature (without washing).
(§2) Whole blood cells which had been stimulated or washed ex vivo […] were incubated on ice for 15 minutes with saturation concentrations of monoclonal fluorochrom-conjugated or biotinylated antibodies. The monoclonal antibodies CD11a (clone 25.3.1), CD16a (clone 3G8). […]

CD55/CD14 (Uchm1) = molecular target: T2, CD55/CD14 (Uchm1) (Homo sapiens, UniProt P08571); assay: FRET co-assembly of CD55 with CD14 on monocytes; settings: LPS 4 nM, ceramide 40 nM, LTA 1 μg/ml, HSP70 7 nM; mean ± SD of 10 experiments; >5% = positive transfer
T2 construct: endogenous in cells; host or cells: human monocytes in whole blood
T2 sequence (P08571 20-345 limits assumed): T1 sequence (P08571 20-345 limits assumed)
Protocol: as §1, §2

CD64/CD14 (Uchm1) = molecular target: T3, CD64/CD14 (Uchm1) (Homo sapiens, UniProt P08571); assay: FRET co-assembly of CD64 with CD14 on monocytes; settings: LPS 4 nM, ceramide 40 nM, LTA 1 μg/ml, HSP70 7 nM; mean ± SD of 10 experiments; >5% = positive transfer
T3 construct: endogenous in cells; host or cells: human monocytes in whole blood
T3 sequence (P08571 20-345 limits assumed): T1 sequence (P08571 20-345 limits assumed)
Protocol: as §1, §2

CD32/CD14 (Uchm1) = molecular target: T4, CD32/CD14 (Uchm1) (Homo sapiens, UniProt P08571); assay: FRET co-assembly of CD32 with CD14 on monocytes; settings: LPS 4 nM, ceramide 40 nM, LTA 1 μg/ml, HSP70 7 nM; mean ± SD of 10 experiments; >5% = positive transfer
T4 construct: endogenous in cells; host or cells: human monocytes in whole blood
T4 sequence (P08571 20-345 limits assumed): T1 sequence (P08571 20-345 limits assumed)
Protocol: as §1, §2

CD36/CD14 (×8) = molecular target: T5, CD36/CD14 (×8) (Homo sapiens, UniProt P08571); assay: FRET co-assembly of CD36 with CD14 on monocytes; settings: LPS 4 nM, ceramide 40 nM, LTA 1 μg/ml, HSP70 7 nM; mean ± SD of 10 experiments; >5% = positive transfer
T5 construct: endogenous in cells; host or cells: human monocytes in whole blood
T5 sequence (P08571 20-345 limits assumed): T1 sequence (P08571 20-345 limits assumed)
Protocol: as §1, §2

CD18(7E4)/CD14 (×8) = molecular target: T6, CD18(7E4)/CD14 (×8) (Homo sapiens, UniProt P08571); assay: FRET co-assembly of CD18 with CD14 on monocytes; settings: LPS 4 nM, ceramide 40 nM, LTA 1 μg/ml, HSP70 7 nM; mean ± SD of 10 experiments; >5% = positive transfer
T6 construct: endogenous in cells; host or cells: human monocytes in whole blood
T6 sequence (P08571 20-345 limits assumed): T1 sequence (P08571 20-345 limits assumed)
Protocol: as §1, §2

CD11b and CD14 = molecular target: T7, CD11b and CD14 (Homo sapiens, UniProt P08571); assay: FRET flow cytometry: co-assembly of CD11b and CD14 on monocytes
T7 construct: endogenous in cells; host or cells: human monocytes in heparinised whole blood (healthy donors and patients)
T7 sequence (P08571 20-345 limits assumed): T1 sequence (P08571 20-345 limits assumed)
Protocol: as §1
(§3) Whole blood cells which had been stimulated or washed ex vivo […] were incubated on ice for 15 minutes with saturation concentrations of monoclonal fluorochrom-conjugated or biotinylated antibodies. The monoclonal antibodies CD11a (clone 25.3.1), CD16a (clone 3G8). CD18 (clone 7E4), CD14 (clone RMO52), CD33 (clone My9-RD1). CD81 (clone Js64) were obtained as R-phyco-erythrine (R-PE) conjugates and CD25 (clone B1.49.9) in biotinylated form from Coulter/Immunotech (Krefeld, Germany). CD11b (clone d12), CD11c (clone S-HCL-3), CD36 (clone CB38), CD47 (clone B6H12), CD81 (clone JS-81) and (Cd55 (clone IA10) in biotinylated form and Streptavidin-R-PE were purchased from Becton/Dickinson/Pharningen (Heidelberg, Germany) CD18 (clone IB4) in biontinylated form and CD40 (clone EA-5) as R-PE conjugate were obtained from Alexis (Grünberg, Germany) and CD14 (clones ×8 and Uchml) and CD3 (clone Cris-7) in biotinylated form and Streptavidin-Cy5 (Sa-Cy5) from Dianova (Hamburg, Germany), CD32 (clone C1KM5) and CD64 (clone 10.1) were obtained as R-PE conjugates from Caltag (Burlingame, U.S.A.) and CD91 (clone 8G1) in biotinylated form from Proen (Heidelberg, Germany). A monoclonal anti-TLRA antibody (clone HTA125) was kindly provided by Dr. Kensuke. Since no energy transfer between the antibodies directed against the CD14/CD11a and CD14/CD11c pairs was detectable either on resting or on stimulated cells, these antibody combinations were not characterised further.
Lysis of erythrocytes and washing were carried out as described (Rothe et al., Thromb. Vasc. Biol. 16 (1996), 1437-1447). After the last washing step, the samples were divided and part of each sample incubated with a saturating amount of SA-Cy5 on ice for 15 minutes and washed before measuring.
For energy transfer experiments, […] aliquots of whole blood were treated with cholesterol/methyl cyclodextrine (C/C) (100 mg/ml/4.6 mg/ml) or 2-hydroxypropyl-β-cyclodextrine (0.15 mg/ml) at 37° C. for 30 minutes and then stimulated further with LPS (4 nM) or ceramide (40 nM) as described above. The energy transfer between CD14 and CD11b was measured.
A “FACSCalibur” flow cytometer (Becton Dickinson) equipped with an air-cooled 15 mW argon laser (excitation wavelength 488 nm), a diode laser (excitation wavelength […]) and standard filters [channel 1 (FITC): 530/30 nm band pass filter; channel 2 (R-PE being used as donor dye); 585/47 nm band pass filter; channel 3 (PerCP): pass having a length of >670 nm; and channel 4 (Cy5being used as recipient dye): 661/16 nm bad pass filter] was used. The Cellquest software (Becton Dickinson) was used for the measurements. […] Measurement was conducted without compensation. 50,000 leukocytes were required in the “list” modus, forward scattering (FSC) being used as a trigger signal. […]

CD81/CD14 (×8) = molecular target: T8, CD81/CD14 (×8) (Homo sapiens, UniProt P08571); assay: FRET co-assembly of CD81 with CD14 on monocytes; settings: LPS 4 nM, ceramide 40 nM, LTA 1 μg/ml, HSP70 7 nM, mean ± SD of 10 experiments
T8 construct: endogenous in cells; host or cells: human monocytes in whole blood (donors; also sepsis and CAD patients)
T8 sequence (P08571 20-345 limits assumed): T1 sequence (P08571 20-345 limits assumed)
Protocol: as §1
as §3, with “further. […]” for “further.”

CD47/CD14 (Uchm1) = molecular target: T9, CD47/CD14 (Uchm1) (Homo sapiens, UniProt P08571); assay: FRET co-assembly of CD47 with CD14 on monocytes; settings: LPS 4 nM, ceramide 40 nM, LTA 1 μg/ml; mean ± SD of 10 experiments; >5% = positive transfer
T9 construct: endogenous in cells; host or cells: human monocytes in whole blood
T9 sequence (P08571 20-345 limits assumed): T1 sequence (P08571 20-345 limits assumed)
Protocol: as §1, §2

TLR-4/CD14 (×8) = molecular target: T10, TLR-4/CD14 (×8) (Homo sapiens, UniProt P08571); assay: FRET co-assembly of TLR-4 with CD14 on monocytes; settings: LPS 4 nM, ceramide 40 nM, LTA 1 μg/ml, HSP70 7 nM; mean ± SD of 10 experiments; >5% = positive transfer
T10 construct: endogenous in cells; host or cells: human monocytes in whole blood
T10 sequence (P08571 20-345 limits assumed): T1 sequence (P08571 20-345 limits assumed)
Protocol: as §1, §2

energy transfer CD16/CD14 (Uchm1) (CD16/CD14 (Uchm1)): 3.2 ± 5.6%
energy transfer CD55/CD14 (Uchm1) (CD55/CD14 (Uchm1)): 9.7 ± 1.5%
energy transfer CD64/CD14 (Uchm1) (CD64/CD14 (Uchm1)): 10.4 ± 1.3%
energy transfer CD32/CD14 (Uchm1) (CD32/CD14 (Uchm1)): 11.6 ± 3.4%
energy transfer CD36/CD14 (×8) (CD36/CD14 (×8)): 10.1 ± 1.0 %
energy transfer CD18(7E4)/CD14 (×8) (CD18(7E4)/CD14 (×8)): 5.4 ± 0.8 %
EC50 (CD11b and CD14; human monocytes, FIG. 1b, read-out: EC50cer, ceramide-induced energy transfer between antibodies against CD11b and CD14 (clone ×8)): ~0.1 nM
energy transfer CD81 (JS-81)/CD14 (×8) (CD81/CD14 (×8); CD81 clone JS-81): 3.1 ± 2.4%
energy transfer CD81 (Js64)/CD14 (×8) (CD81/CD14 (×8); CD81 clone Js64): 2.8 ± 0.7%
energy transfer CD47/CD14 (Uchm1) (CD47/CD14 (Uchm1)): 11.9 ± 3.1%
energy transfer TLR-4/CD14 (×8) (TLR-4/CD14 (×8)): 3.2 ± 2.5%
Substance: ceramide
co-assembly of CD11b and CD14 (energy transfer between monoclonal antibodies) (CD11b and CD14; human monocytes in whole blood, stimulation with the substance alone, 37° C. 15 minutes): induces the transfer of CD14 into a receptor cluster
